Legend:
[1] = Pharmacokinetics following oral administration of 23CPPA in rats for fourteen days; type: in vivo; details: for Tmax / half-life: rat, plasma
Experimental: (§1) Rats (Charles River Laboratories) received 23CPPA orally at dosages of 25 and 75 mg per kg per day for fourteen days. Samples were obtained at timed intervals following administration for measurement of plasma concentrations of 23CPPA and pharmacokinetic analysis, and tissue was histopathologically examined at the end termination of the study period.

[2] = Gastric histopathology following oral administration of 23CPPA in rats for fourteen days; type: in vivo
Experimental: as §1

[3] = Plasma 23CPPA after oral graduated doses of nonformulated 23CPPA to normal men; type: in vivo
Experimental: Plasma concentrations of 23CPPA were measured in samples obtained at timed intervals after oral administration of graduated doses of nonformulated 23CPPA to normal men.

[4] = pKa (acid dissociation constant); type: physicochemical; details: pharmaceutically acceptable salts of 23CPPA such as potassium; read-out: pKa (logarithm of the acid dissociation constant)

time of maximum plasma concentration of drug after administration ([1]; 25 and 75 mg per kg per day): 0.25 h
Tmax ([1]; 25 mg/kg/day for fourteen days): 0.25 h
half-life ([1]; 25 mg/kg/day for fourteen days): 2.3 h
Tmax ([1]; 75 mg/kg/day for fourteen days): 0.25 h
half-life ([1]; 75 mg/kg/day for fourteen days): 2.3 h
Gastric Histopathology: Edema/inflammation ([2]; 25 mg/kg/day for fourteen days): Edema/inflammation (20) % animals
Gastric Histopathology: Edema/inflammation ([2]; 75 mg/kg/day for fourteen days): Edema/inflammation (30) % animals
Plasma 23CPPA (peak concentration) ([3]; relative dose 1): 7 nmol/mL
Plasma 23CPPA (peak concentration) ([3]; relative dose 2): 19 nmol/mL
Plasma 23CPPA (peak concentration) ([3]; relative dose 5): 44 nmol/mL
Plasma 23CPPA (peak concentration) ([3]; relative dose 10): 64 nmol/mL
Plasma 23CPPA (peak concentration) ([3]; relative dose 15): 70 nmol/mL
Plasma 23CPPA (peak concentration) ([3]; relative dose 20): 74 nmol/mL
pKa [4]: 4
SMILES: O=C(O)Cc1ccccc1Nc1cccc(Cl)c1 [Granule 23CPPA, 2-[(3-chlorophenyl)amino] phenylacetic acid]
